Reference: US12440570B2, “Conjugation of MCR1 ligand with cytotoxic drugs for treating skin cancer” (ARIZONA BOARD OF REGENTS ON BEHALF OF THE UNIVERSITY OF …, priority 2019, dated 2025)
Read-outs that look alike come from different tables or passages of the source.

Tests used:
[1] = system: A375 melanoma cells; assay: cells; format: cell-based, human; conditions: XTT, 24 h incubation, read-out: IC50, A375 melanoma cell viability
Protocol: A375 cells were seeded in 96 well plates at a density of around 10^5 cells per well in 95 μL of MEM medium and incubated for 24 h, Cells were treated with 5 μL of drugs in a final concentration of 0, 0.3 nM, 1 nM, 3 nM, 10 nM, 30 nM, 100 nM and 300 nM for 24 h. XTT solution was prepared by dissolving 4 mg XTT in 4 mL MEM medium. PMS solution was prepared by dissolving 3 mg of PMS in 1 mL of phosphate buffer saline (PBS). 10 μL of PMS solution was added to 4 mL of XTT solution, and 25 μL of the PMS/XTT mixture was added to each well. The plate was incubated at 37 ° C. for another 2 h culture. Absorbance was measured at 450 nm using a pQuant Universal Microplate Reader (Bio-Tek instruments, Inc., Winooski, VT). Absorbance from no-cells control was subtracted and the percentage of cell viability was calculated as the percentage of absorbance relative to cells treated with medium.

[2] = cited from earlier work
[3] = target: T1, human MC1R (Homo sapiens, UniProt Q01726); assay: Competitive binding assay with 125I labelled NDP-α-MSH on whole cells, MC1R; conditions: for Ki: HEK293 cells overexpressing human MC1R, 125I NDP-α-MSH; for displacement of NDP-α-MSH from MC1R: within micromolar range concentration
T1 construct: expressed in transfected cells; host or cells: HEK293 (stably transfected)
T1 sequence (Q01726 whole entry): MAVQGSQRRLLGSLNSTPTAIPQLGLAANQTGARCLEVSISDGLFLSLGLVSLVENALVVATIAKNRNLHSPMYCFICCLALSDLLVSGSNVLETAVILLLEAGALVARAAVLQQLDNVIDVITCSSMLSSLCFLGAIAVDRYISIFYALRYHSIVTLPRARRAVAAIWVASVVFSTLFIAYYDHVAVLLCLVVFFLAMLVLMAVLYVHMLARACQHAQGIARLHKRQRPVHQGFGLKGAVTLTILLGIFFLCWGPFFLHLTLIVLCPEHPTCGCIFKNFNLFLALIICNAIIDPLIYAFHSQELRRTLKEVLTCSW
Protocol: Competitive binding assays were performed on whole cells. Stably transfected HEK293 cell lines overexpressing human MC1R, MC3R, MC4R or MC5R were seeded on 96-well plates 48 h before the assay and grown to 100,000 cells per well. For the assay, the medium was removed, and cells were washed twice with a binding buffer containing minimum essential medium with Earle's salt (MEM, GIBCO), 25 mM HEPES (pH 7.4), 0.2% bovine serum albumin, 1 mM 1,10-phenanthrolone, 0.5 mg/L leupeptin and 200 mg/L bacitracin. Cells were incubated with different concentrations of unlabeled test compounds and ^125I labelled NDP-α-MSH (PerkinElmer, 100,000 cpm/well, 0.1386 nM) for 40 min at 37° C. The medium was subsequently removed, and the cells were washed twice with the binding buffer. The cells were lysed by 50 μL of 0.1 mM NaOH and 50 μL of 1% Triton X-100. The plates were left dry overnight under the hood, and 50 μL of scintillation fluid (OptiPhase SuperMix, PerkinElmer) were added in each well. The radioactivity was measured using MicroBeta 2 microplate counter (PerkinElmer).

[4] = system: HEK293 kidney epithelial cells; assay: Live-cell confocal microscopy, fluorescence uptake by HEK293 cells; format: cell-based; conditions: 3 μM, 2.5 h
Protocol: (§1) 1 mL of A375 or HEK293 cell suspension (˜5×10^4 cells) were seeded in 35 mm No. 1.5 coverslip glass-bottomed microwell dish (MatTek) and cultured overnight. Cells were gently washed with PBS twice and treated with compound 2 (3 μM) with or without MT-II (30 μM) in phenol red-free, HEPES-supplemented DMEM. After incubation at 37° C. for indicated time, cells were washed three times with PBS before imaging. Images were taken with Zeiss LSM880 inverted confocal microscope with either bright field or laser at […] with 2% laser power and Plan-Apochromat 63×/1.4 Oil DIC M27 objective.

[5] = system: A375 malignant melanoma cells; assay: Live-cell confocal microscopy, fluorescence uptake by A375 cells; format: cell-based, human
Protocol: as §1

[6] = linear peptide; cited from earlier work

CC[C@@]1(O)C(=O)OCc2c1cc1n(c2=O)Cc2cc3ccccc3nc2-1 [CPT, camptothecin, reference compound]
IC50 ([1]; Homo sapiens, A-375): 47 ± 2 nM | solubility [2]: poor solubility

CCCC[C@H](NC(=O)CCCCCNC(=O)[C@@H](N)CSSCCOC(=O)O[C@]1(CC)C(=O)OCc2c1cc1n(c2=O)Cc2cc3ccccc3nc2-1)C(=O)N[C@H]1CC(=O)NCCCC[C@@H](C(N)=O)NC(=O)[C@H](Cc2c[nH]c3ccccc23)NC(=O)[C@H](CCCNC(=N)N)NC(=O)[C@@H](Cc2ccccc2)NC(=O)[C@H](Cc2c[nH]cn2)NC1=O [CPT-MT-II (1)]
IC50 [1]: 16 nM | Ki ([3]; Ki MC1R): 57 nM | selectivity to MC1R as compared to MC3R, MC4R and MC5R ([3]; from Ki values): 3-6 fold

CCCC[C@H](NC(=O)CCCCCNC(=O)[C@@H](N)CSSCCOC(=O)Oc1ccc2c(c1)Oc1cc(O)ccc1C21OC(=O)c2ccccc21)C(=O)N[C@H]1CC(=O)NCCCC[C@@H](C(N)=O)NC(=O)[C@H](Cc2c[nH]c3ccccc23)NC(=O)[C@H](CCCNC(=N)N)NC(=O)[C@@H](Cc2ccccc2)NC(=O)[C@H](Cc2c[nH]cn2)NC1=O (some centres unmarked) [fluorescein-MT-II (2)]
fluorescence uptake by HEK293 cells compared to A375 cells [4]: much weaker fluorescence intensity | Ki ([3]; read-out: Ki MC1R): 172 nM | displacement of NDP-α-MSH from MC1R [3]: fully displace | displacement of NDP-α-MSH from MC1R ([3]; listed as fluorescein-MT-II): fully displace NDP-α-MSH | fluorescence uptake by A375 cells ([5]; 3 μM with 30 μM of MT-II, 2.5 h): not observed | fluorescence uptake by A375 cells ([5]; 3 μM, 0.5 h): No significant fluorescence uptake | fluorescence uptake by A375 cells ([5]; 3 μM, 2.5 h): strong fluorescence | time for release of fluorescein into A375 ([5]; confocal microscopy): at least 90 minutes

α-MSH
half-life [6]: around 10 minutes
